Measured values taken from US20100203132A1, “Pharmaceutical Compositions Comprising NEP-Inhibitors, Inhibitors of the Endogenous Endothelin Producing System and AT1 Receptor Antagonists” (Solvay Pharmaceuticals GmbH, priority 2004, published 2010).
Where a name gives a salt, the structure may show the parent alone.

Assays:
[1] = system: spontaneously hypertensive rat; assay: Telemetric monitoring of blood pressure and heart rate in spontaneously hypertensive rats, compounds given via the drinking water; format: in vivo; details: SHR; for DBP, change vs. baseline / HR, change vs. baseline / SBP, change vs. baseline: mean, n=5
From the text: Male spontaneously hypertensive rats (=SHR, insulin resistant strain from Charles River; aged 6 months) were equipped with telemetry transmitters for continuous monitoring of blood pressure and heart rate (as described below). After 3 days of monitoring under baseline (untreated) conditions, animals were divided into two groups receiving an AT1-receptor antagonist (eprosartan mesylate, hereinafter referred to as experiment I; or candesartan cilexetil, hereinafter referred to as experiment II) or an AT1-receptor antagonist plus daglutril in combination. In experiment II, a third group of rats was included, receiving only daglutril. Compounds were administered via the drinking water, and daily drug intake was measured by weighing the water bottles thrice weekly. Intended daily doses in experiment I were 60 mg/kg/day of eprosartan mesylate plus, in the combination group, 100 mg/kg/day of daglutril. In experiment II, intended daily doses were 1 mg/kg of candesartan cilexetil, and 100 mg/kg of daglutril in the daglutril only and the combination group. Telemetry transmitters for continuous monitoring of blood pressure, heart rate and locomotor activity (TA11PA-C40, Data Sciences, USA) were implanted intraabdominally under inhalative halothane anesthesia. A midline abdominal incision was made, and the abdominal aorta was visualized by removal of retroperitoneal fat and connective tissue. A ligature was placed caudal of the renal arteries, the aorta was punctured with a 22G needle, and the catheter was advanced into the aorta. The entry point was sealed with tissue adhesive (Vetbond®, 3M, USA), the ligature was removed, and the abdominal incision was closed. Measurements of aortic pressure were taken every 5 minutes (=min) for 4 seconds (=s) each at a sampling rate of 500 Hz, and were corrected for the corresponding ambient pressure (ambient pressure monitor, C11 PR, Data Sciences, USA).
Concentrations of AT1-receptor antagonists and daglutril in the drinking water were adjusted once per week, in order to ensure the intended daily intake. In experiment I, the average daily water intake throughout the 33 days treatment period amounted to 51 and 56 ml/kg in the eprosartan and eprosartan plus daglutril group, respectively, resulting in the uptake of 62 mg/kg/day of eprosartan in both groups, and 104 mg/kg/day of daglutril in the combination group. In experiment II, the average daily water intake during the 25 days treatment period was 64 ml/kg (candesartan only), 62 ml/kg (daglutril only) and 62 ml/kg (candesartan plus daglutril), resulting in daily doses of 0.9 mg/kg of candesartan in both, the candesartan and combination group, and 101 mg/kg and 98 mg/kg of daglutril in the daglutril and combination group, respectively.
The blood pressure, heart rate and activity values, sampled in 5 min intervals by the Dataquest system, were used for calculation of individual 24 hours (=h)-means. These 24 h means were exported to Excel, and group mean values of systolic blood pressure (=SBP), diastolic blood pressure (=DBP), heart rate (=HR), and locomotor activity (=ACT) were calculated for the different treatment groups. For the statistical analysis, a baseline value (pre) was calculated from 3 days prior to compound application, and effects of AT1-receptor antagonist, daglutril and their combination were calculated in relation to this baseline value (average value during the treatment period minus baseline value). The statistical comparison was done by using analysis of variance, followed by two-tailed Student's t-test for comparison of AT1 receptor antagonist and combination groups, both at an error level of P<0.05.

[2] = system: human subjects with congestive heart failure; assay: Single dose study of oral daglutril during 12-hour right heart catheterization, subgroup analysis by concomitant losartan potassium; format: in vivo; details: human CHF subjects, single oral dose of daglutril (200, 400 or 800 mg groups pooled), with or without concomitant losartan potassium; value is mean change (SE)
Experimental: A randomized, placebo-controlled, parallel group, multi-center, single dose study of oral daglutril (vide supra) during 12-hour right heart catheterization in human subjects with congestive heart failure (=CHF) was performed. Each subject received one dose of daglutril or placebo. The study consisted of three visits (or study days when in-subjects were included). Ambulatory subjects were in hospital for two nights and one day. […]
The primary efficacy parameter was the maximum decrease from baseline over 6 hours for SVR and was compared between treatment groups using analysis of covariance, with the baseline value as covariate and center and NYHA classification as factors. […] In addition, the existence of a dose-response relationship for daglutril was evaluated by investigating linear, quadratic and cubic contrasts. The secondary efficacy parameter was the maximum change from baseline for PCWP and was analyzed in the same way as the primary variable. The maximum decrease from baseline over 12 hours, the change from for each individual time point and the adjusted area under the curve (=AUC) over 6 and 12 hours were analyzed for SVR and PCWP, using similar statistical methodology as for the main parameter of interest. All other tertiary efficacy parameters were analyzed using the same statistical methodology as for the primary efficacy parameter. […]

[3] = experiment II, 25 days via drinking water, candesartan 0.9 mg/kg/day, daglutril 101 mg/kg (alone) or 98 mg/kg (combination)
[4] = experiment I, 33 days via drinking water, eprosartan 62 mg/kg/day, daglutril 104 mg/kg/day in combination

| SMILES | DBP, change vs. baseline [1, 3] | HR, change vs. baseline [1, 3] | SBP, change vs. baseline [1, 3] | DBP, change vs. baseline [1, 4] | HR, change vs. baseline [1, 4] | SBP, change vs. baseline [1, 4] | reduction in blood pressure (in words) ([1]; daglutril given alone) | Placebo corrected mean change of MPAP (average 0.5-6 hrs) [2] |
| --- | --- | --- | --- | --- | --- | --- | --- | --- |
| CCOc1nc2cccc(C(=O)OC(C)OC(=O)OC3CCCCC3)c2n1Cc1ccc(-c2ccccc2-c2nn[nH]n2)cc1 (centres unmarked) [Candesartan, candesartan cilexetil] | −19.7 mmHg | -3.0 min⁻¹ | −22.8 mmHg |  |  |  |  |  |
| CCCCc1ncc(/C=C(\Cc2cccs2)C(=O)O)n1Cc1ccc(C(=O)O)cc1 [Eprosartan, eprosartan mesylate] |  |  |  | −5.6 mmHg | -7.6 min⁻¹ | −5.9 mmHg |  |  |
| CCOC(=O)C(CCc1ccccc1)CC1(C(=O)NC2CCc3ccccc3N(CC(=O)O)C2=O)CCCC1 (centres unmarked) [daglutril, 2-[1-(1-carboxymethyl-2-oxo-2,3,4,5-tetrahydro-1H-benzo[b]azepin-3-ylcarbamoyl)-cyclopentylmethyl]-4-phenyl-butyric acid ethyl ester] | 0.8 mmHg | -2.0 min⁻¹ | −1.5 mmHg |  |  |  | did not lead to a reduction in blood pressure | −3.35 (1.06) mmHg |
